Consider two compounds from patent US20230085307A1, “PYRIDAZINONE COMPOUND AND HERBICIDE” (NISSAN CHEMICAL CORPORATION, priority 2019, published 2023).

Each structure is given as a SMILES string.

The test system of test [1] is Japanese bulrush. Description: Test Example 2: herbicidal activity, application during weed generation under submerged conditions (Table 17, symbol B). It is filed as in vivo, Japanese bulrush (Schoenoplectus juncoides). The following applies: AAH 320 g/ha; application during weed generation, submerged conditions. An outline of the steps: (§1)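 Steps: fill Wagner pots with alluvial soil; add water to give 4 cm depth; sow the species mixed; grow under glass at 25–30° C.; at 1–2 leaves apply water-diluted emulsion formulation to the water surface at a fixed herbicide amount; score after 3 weeks.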

Test [2] has as its system late watergrass. Briefly: Test Example 1: herbicidal activity, application before weed generation under submerged conditions (Table 16, symbol A). In kind it is in vivo, late watergrass (Echinochloa oryzicola). The following applies: 320 g/ha applied herbicide. An outline of the steps: (§2)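 Alluvial soil was flooded to 4 cm depth, weed seeds were sown mixed and 2.5-leaf rice seedlings were transplanted. On sowing day, the compound's emulsion, diluted in water to a set dose, was applied to the water surface. Plants grew at 25–30 °C and were scored 0–5 after three weeks.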

The test system of test [3] is oval-leafed pondweed. Description: Test Example 1: herbicidal activity, application before weed generation under submerged conditions (Table 16, symbol C). In kind it is in vivo, oval-leafed pondweed (Monochoria vaginalis). The following applies: 320 g/ha applied herbicide. The gist of the method: as §2
Test [4] concerns Japanese bulrush. Description: Test Example 1: herbicidal activity, application before weed generation under submerged conditions (Table 16, symbol B). In kind it is in vivo, Japanese bulrush (Schoenoplectus juncoides). Particulars: 320 g/ha applied herbicide. An outline of the steps: as §2
A further test relates to barnyard grass. Description: Test Example 3: herbicidal effect by foliage application, Wagner pot (Table 18, symbol H). In kind it is in vivo, barnyard grass (Echinochloa crus-galli). The following applies: 320 g/ha. The gist of the method: (§3)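 Plants were sown in alluvial soil held under 0.1–0.5 cm standing water and grown 14 days in a greenhouse at 25–30 °C. An emulsifiable formulation, water-diluted to the set dose, was then sprayed onto the foliage, and effects were scored three weeks later using previously defined criteria.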

The subject of another test is Chinese sprangletop. Briefly: Test Example 3: herbicidal effect by foliage application, Wagner pot (Table 18, symbol D). In kind it is in vivo, chinese sprangletop (Leptochloa chinensis). Particulars: 320 g/ha. The gist of the method: as §3
The subject of test [5] is late watergrass. Briefly: Test Example 2: herbicidal activity, application during weed generation under submerged conditions (Table 17, symbol A). Particulars: AAH 320 g/ha; application during weed generation, submerged conditions. It is filed as in vivo, late watergrass (Echinochloa oryzicola). The gist of the method:
as §1

Another test relates to rice flat sedge. Description: Test Example 3: herbicidal effect by foliage application, Wagner pot (Table 18, symbol E). Particulars: 320 g/ha. In kind it is in vivo, rice flat sedge (Cyperus iria). The gist of the method:
as §3

In test [6] the test system is oval-leafed pondweed. Briefly: Test Example 2: herbicidal activity, application during weed generation under submerged conditions (Table 17, symbol C). Particulars: AAH 320 g/ha; application during weed generation, submerged conditions. In kind it is in vivo, oval-leafed pondweed (Monochoria vaginalis). An outline of the steps: as §1

In the case of `C=C(C)CCOc1ccc(-c2sc3ccccc3c2-c2c(O)c(C)nn(C)c2=O)cc1` [1-210], in the test on Japanese bulrush [1], the “herbicidal effect rating, B: Japanese bulrush” value was 3 (Herbicidal rate of 40% or more and less than 70%). In addition, the “Herbicidal effect on A: late watergrass (grade 0-5)” value in the test with late watergrass [2] was 5 (Herbicidal rate of 90% or more (almost completely withered)). In addition, the “Herbicidal effect on C: oval-leafed pondweed (grade 0-5)” value with oval-leafed pondweed [3] is listed as 5 (Herbicidal rate of 90% or more (almost completely withered)). Further, the “Herbicidal effect on B: Japanese bulrush (grade 0-5)” value with Japanese bulrush [4] is listed as 5 (Herbicidal rate of 90% or more (almost completely withered)). The “herbicidal effect on H (barnyard grass), rating 0-5” value in the test with barnyard grass is 5 (Herbicidal rate of 90% or more (almost completely withered)). The “herbicidal effect on D (Chinese sprangletop), rating 0-5” value in the test with Chinese sprangletop was 5 (Herbicidal rate of 90% or more (almost completely withered)). The “herbicidal effect rating, A: late watergrass” value with late watergrass [5] is 3 (Herbicidal rate of 40% or more and less than 70%). Also, in the test on rice flat sedge, the “herbicidal effect on E (rice flat sedge), rating 0-5” value was 4 (Herbicidal rate of 70% or more and less than 90%). Moreover, the “herbicidal effect rating, C: oval-leafed pondweed” value in the test on oval-leafed pondweed [6] is 4 (Herbicidal rate of 70% or more and less than 90%).
In the case of `CSCCCOc1ccc(-c2sc3ccccc3c2-c2c(O)c(C)nn(C)c2=O)cc1` [1-222], the “herbicidal effect rating, B: Japanese bulrush” value in the test with Japanese bulrush [1] is 3 (Herbicidal rate of 40% or more and less than 70%). Besides, the “Herbicidal effect on A: late watergrass (grade 0-5)” value in the test on late watergrass [2] is listed as 5 (Herbicidal rate of 90% or more (almost completely withered)). Further, the “Herbicidal effect on C: oval-leafed pondweed (grade 0-5)” value in the test with oval-leafed pondweed [3] was 4 (Herbicidal rate of 70% or more and less than 90%). In addition, the “Herbicidal effect on B: Japanese bulrush (grade 0-5)” value in the test with Japanese bulrush [4] is 4 (Herbicidal rate of 70% or more and less than 90%). In addition, the “herbicidal effect on H (barnyard grass), rating 0-5” value with barnyard grass is reported as 5 (Herbicidal rate of 90% or more (almost completely withered)). Further, the “herbicidal effect on D (Chinese sprangletop), rating 0-5” value in the test with Chinese sprangletop is listed as 5 (Herbicidal rate of 90% or more (almost completely withered)). Further, the “herbicidal effect rating, A: late watergrass” value in the test on late watergrass [5] is on record as 5 (Herbicidal rate of 90% or more (almost completely withered)). Also, the “herbicidal effect on E (rice flat sedge), rating 0-5” value with rice flat sedge was 4 (Herbicidal rate of 70% or more and less than 90%). Also, in the test with oval-leafed pondweed [6], the “herbicidal effect rating, C: oval-leafed pondweed” value is 4 (Herbicidal rate of 70% or more and less than 90%).
